This is an account of results in patent US8470587B2, “129Xe biosensors and their use” (The Trustees of the University of Pennsylvania, priority 2006, dated 2013).

The conditions of data set [1]: 278 K in C2D2Cl4; cited from earlier work.
The test system of data set [2] is lung and pancreatic cancer cell lines. Description: cell uptake of tetraRGD Xe biosensor, blocking by cyclic RGD peptide. It counts as cell-based. An excerpt: Very efficient uptake by Xe biosensors containing tetraRGD was found in lung and pancreatic cancer cell lines, and no uptake by red blood cells, as shown in FIGS. 26 and 27.
The subject of data set [3] is NCI-H1975. Description: cellular uptake by confocal microscopy. It counts as cell-based. Conditions: 15 minutes incubation; 2 μM, 2 mM; cells expressing αvβ3 integrin. As to the method: (§1) Cells were incubated with 2 mM tetraRGD-cryptophane for 15 minutes, washed, and imaged via confocal microscope. […] A-B) CAPAN-2, C-D) HFL-1, E-F) NCI-H1975, G-H) human red blood cells.
(§2) Cellular uptake was confirmed via confocal microscopy. Cells were incubated with 2 μM tetraRGD-cryptophane for 15 minutes, washed, and imaged via confocal microscope. […] A-B) CAPAN-2, C-D) HFL-1, E-F) NCI-H1975, G-H) human red blood cells.

For data set [4], the system named is human red blood cells. Description: cellular uptake by confocal microscopy. The following applies: 15 minutes incubation; 2 μM, 2 mM; cells not expressing αvβ3; listed as tetraRGD-cryptophane. It counts as cell-based. The protocol:
as §1, §2

Data set [5] has as its system HFL-1. Description: cellular uptake by confocal microscopy. The following applies: 15 minutes incubation; 2 μM, 2 mM; cells expressing αvβ3 integrin. It counts as cell-based. The protocol: as §1, §2
Data set [6] relates to CAPAN-2. Nature of the data set: cellular uptake by confocal microscopy. It counts as cell-based. The following applies: 15 minutes incubation; 2 μM, 2 mM; cells expressing αvβ3 integrin. As to the method: as §1, §2
Data set [7] concerns cells. Nature of the data set: cytotoxicity, standard MTT assay. It counts as cell-based. Conditions: 1-100 μM, 24 h soak, average of four trials. As to the method:
Cytotoxicity was assessed using a standard MTT assay protocol.

Ends that are not written are not given here.

As for `COc1cc2c3cc1OCCOc1cc4c(cc1OC)Cc1cc5c(OC)cc1Cc1cc(c(OC)cc1C4)OCCOc1cc(c(cc1OC)C3)Cc1cc(OC)c(cc1C2)OCCO5` [cryptophane-A], the “KA of xenon binding” value in data set [1] was 3900 M⁻¹.

Take “Cy3-labelled ^129Xe biosensor: cryptophane biosensor containing the tetra-RGD peptide (RGDRGDRGDRGD, SEQ ID. No. 30), labeled with Cy3, targeting αvβ3 integrin (also: cryptophane cage conjugated, Cy3 labeled; listed as Homo sapiens)”: the “cell uptake in presence of cyclic RGD peptide” value in data set [2] is on record as “blocked”. Besides, the “cellular uptake (fluorescence)” value in data set [3] was “exhibited fluorescence”; in data set [4], “showed little fluorescence”; in data set [5], “exhibited fluorescence”; in data set [6], “exhibited fluorescence”. In addition, the “cytotoxicity (cell viability relative to healthy controls)” value in data set [7] is on record as “non-toxic”; in data set [7] (listed as Cy3 dye-labeled ^129Xe biosensor), “not toxic”.
